Like-named read-outs stand apart in the source and are kept apart here.
Key:
[1] = system: Cullin-3 (CUL3) neddylation; assay: AlphaLISA assay for Cullin-3 (CUL3) neddylation in TF 1 cells; assay type: cell-based; conditions: Homo sapiens, TF-1, 3 h, 3 hours treatment
Method in brief: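 TF 1 cells in unsupplemented IMDM treated with compound concentrations for 3 h, then lysed. CUL3 neddylation detected by AlphaLISA (biotinylated anti-NEDD8, anti-CUL3 acceptor beads overnight, streptavidin donor beads 1 h); normalized to vehicle (0%) and 1 μM DI-1548 (100%), IC50 from Hill fits.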

[2] = molecular target: DCN1 (DCUND1) protein PONY domain (Homo sapiens (Human), UniProt Q96GG9); assay: TR-FRET assay, DCN1 binding with FAM-labeled probe
Chain of DCN1 (DCUND1) protein PONY domain (Q96GG9 60-248): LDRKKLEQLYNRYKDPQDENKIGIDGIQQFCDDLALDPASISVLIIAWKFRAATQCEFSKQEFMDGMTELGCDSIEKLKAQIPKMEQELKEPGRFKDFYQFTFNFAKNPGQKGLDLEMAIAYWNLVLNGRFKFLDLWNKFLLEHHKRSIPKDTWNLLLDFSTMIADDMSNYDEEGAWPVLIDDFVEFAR
Method in brief: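 Tb-DCN1 PONY domain (E. coli, biotin/streptavidin-Tb); FAM-labelled non-covalent inhibitor probe; TritonX buffer, 200 mM NaCl; 5 nM DCN1 + 20 nM probe or 0.31 nM DCN1 + 900 nM total probe; 0.1% DMSO; TR-FRET read 1, 5, 24 hrs.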

DCN1 protein = DCN1 protein (Homo sapiens (Human), UniProt Q96GG9); assay: Intact Protein MS Analysis with the RapidFire-TOF System (covalent adduct formation); assay type: binding; conditions: MS Emax; 400 nM DCN1, 3 hours at room temperature
Chain of DCN1 protein (Q96GG9 whole entry): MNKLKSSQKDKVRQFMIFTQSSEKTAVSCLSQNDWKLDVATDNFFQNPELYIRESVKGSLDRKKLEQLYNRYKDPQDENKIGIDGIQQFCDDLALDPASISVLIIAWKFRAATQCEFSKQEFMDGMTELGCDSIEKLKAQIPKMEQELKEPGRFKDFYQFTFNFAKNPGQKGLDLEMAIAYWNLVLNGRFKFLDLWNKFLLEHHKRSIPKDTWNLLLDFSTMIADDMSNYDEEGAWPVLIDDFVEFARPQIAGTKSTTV
Method in brief: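 Tag-cleaved human DCN1 (400 nM) expressed in E. coli, in 25 mM Tris-HCl, 200 mM NaCl, 1 mM DTT, was incubated with 11 compound concentrations for 3 h at room temperature and quenched with 0.2% formic acid. Intact-protein Q-TOF MS with deconvolution detected the compound adduct mass.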

[3] = 24 hr after treatment with compound, read-out: TR FRET IC50 24 hr
[4] = read-out: TR FRET IC50 1 hr, 1 hr after treatment with compound
[5] = TR FRET IC50 1 hr (nM), 1 hr after treatment with compound

CCN1C(=O)[C@@H](NC(=O)c2cccc(C(F)(F)F)c2)[C@@H](c2ccc(F)cc2)c2c(C(=O)N3CCC[C@H]3C#N)nn(-c3cccc(OCCN4CCN(C5COC5)CC4)c3)c21 [Compound I-340]
IC50 [1]: ≤ 100 nM | IC50 [2, 3]: ≤ 200 nM | IC50 [2, 4]: ≤ 200 nM | % Adduct Formation (DCN1 protein): +++ (MS Emax % adduct formation greater than 80.0 and less than or equal to 100.0)

CCN1C(=O)[C@@H](NC(=O)c2cccc(C(F)(F)F)c2)[C@@H](c2ccc(F)cc2)c2c(C(=O)N3CCC[C@H]3C#N)nn(-c3cccc(OCCN4CCC5(CC4)COC5)c3)c21 [Compound I-341]
IC50 [1]: ≤ 100 nM | IC50 [2, 3]: ≤ 200 nM | IC50 [2, 4]: ≤ 200 nM | % Adduct Formation (DCN1 protein): +++ (MS Emax % adduct formation greater than 80.0 and less than or equal to 100.0)

CCN1C(=O)[C@@H](NC(=O)c2cccc(C(F)(F)F)c2)[C@@H](c2ccc(F)cc2)c2c(C(=O)N3CCC[C@H]3C#N)nn(-c3cccc(OCCN4CC5(COC5)C4)c3)c21 [Compound I-342]
IC50 [1]: ≤ 100 nM | IC50 [2, 3]: ≤ 200 nM | IC50 [2, 4]: ≤ 200 nM | % Adduct Formation (DCN1 protein): +++ (MS Emax % adduct formation greater than 80.0 and less than or equal to 100.0)

CCN1C(=O)[C@@H](NC(=O)c2ccn(C(F)(F)F)n2)[C@@H](c2ccc(F)cc2)c2c(C(=O)N3CCC[C@H]3C#N)nn(-c3ccccc3)c21 [Compound I-343, N-((4S,5S)-3-((S)-2-cyanopyrrolidine-1-carbonyl)-7-ethyl-4-(4-fluorophenyl)-6-oxo-1-phenyl-4,5,6,7-tetrahydro-1H-pyrazolo[3,4-b]pyridin-5-yl)-1-(trifluoromethyl)-1H-pyrazole-3-carboxamide]
IC50 [1]: ≤ 100 nM | IC50 [2, 3]: ≤ 200 nM | IC50 [2, 5]: 1000 to 3000 nM | % Adduct Formation (DCN1 protein): ++ (MS Emax % adduct formation greater than 30.0 and less than or equal to 80.0)

CCN1C(=O)[C@@H](NC(=O)c2ccn(C(F)(F)F)n2)[C@@H](c2ccc(F)cc2)c2c(C(=O)N3[C@H](C#N)C[C@H]4C[C@H]43)nn(-c3ccccc3)c21 [Compound I-344]
IC50 [1]: ≤ 100 nM | IC50 [2, 3]: ≤ 200 nM | IC50 [2, 5]: 200 to 1000 nM | % Adduct Formation (DCN1 protein): ++ (MS Emax % adduct formation greater than 30.0 and less than or equal to 80.0)

CCN1C(=O)[C@@H](NC(=O)c2ccn(C(F)(F)F)n2)[C@@H](c2ccc(F)cc2)c2c(C(=O)N3CCOC[C@H]3C#N)nn(-c3ccccc3)c21 [Compound I-345]
IC50 [1]: ≤ 100 nM | IC50 [2, 3]: ≤ 200 nM | IC50 [2, 5]: 200 to 1000 nM | % Adduct Formation (DCN1 protein): +++ (MS Emax % adduct formation greater than 80.0 and less than or equal to 100.0)

CCN1C(=O)[C@@H](NC(=O)c2ccn(C(F)(F)F)n2)[C@@H](c2ccc(F)cc2)c2c(C(=O)N3CCNC[C@H]3C#N)nn(-c3ccccc3)c21 [Compound I-346, N-((4S,5S)-3-((S)-2-cyanopiperazine-1-carbonyl)-7-ethyl-4-(4-fluorophenyl)-6-oxo-1-phenyl-4,5,6,7-tetrahydro-1H-pyrazolo[3,4-b]pyridin-5-yl)-1-(trifluoromethyl)-1H-pyrazole-3-carboxamide]
IC50 [1]: ≤ 100 nM | IC50 [2, 3]: ≤ 200 nM | IC50 [2, 5]: 200 to 1000 nM | % Adduct Formation (DCN1 protein): +++ (MS Emax % adduct formation greater than 80.0 and less than or equal to 100.0)

CCN1C(=O)[C@@H](NC(=O)c2cccc(C(F)(F)F)c2)[C@@H](c2ccc(F)cc2)c2c(C(=O)N3CCC[C@H]3C#N)nn(-c3cccc(OCCN(C)C4COC4)c3)c21 [Compound I-347]
IC50 [1]: ≤ 100 nM | IC50 [2, 3]: ≤ 200 nM | IC50 [2, 5]: 200 to 1000 nM | % Adduct Formation (DCN1 protein): +++ (MS Emax % adduct formation greater than 80.0 and less than or equal to 100.0)

CCN1C(=O)[C@@H](NC(=O)c2cccc(C(F)(F)F)c2)[C@@H](c2ccc(F)cc2)c2c(C(=O)N(CC#N)C3CC3)nn(C3CCOCC3)c21 [Compound I-351]
IC50 [1]: ≤ 100 nM | IC50 [2, 3]: ≤ 200 nM | IC50 [2, 4]: ≤ 200 nM | % Adduct Formation (DCN1 protein): +++ (MS Emax % adduct formation greater than 80.0 and less than or equal to 100.0)

CCN1C(=O)[C@@H](NC(=O)c2cccc(C(F)(F)F)c2)[C@@H](c2ccc(F)cc2)c2c(C(=O)N(CC#N)CCN(C)C)nn(C3CCOCC3)c21 [Compound I-352]
IC50 [1]: ≤ 100 nM | IC50 [2, 3]: ≤ 200 nM | IC50 [2, 4]: ≤ 200 nM | % Adduct Formation (DCN1 protein): +++ (MS Emax % adduct formation greater than 80.0 and less than or equal to 100.0)

CCN1C(=O)[C@@H](NC(=O)c2cccc(C(F)(F)F)c2)[C@@H](c2ccc(F)cc2)c2c(C(=O)N(CC#N)CCCN(C)C)nn(C3CCOCC3)c21 [Compound I-353]
IC50 [1]: ≤ 100 nM | IC50 [2, 3]: ≤ 200 nM | IC50 [2, 4]: ≤ 200 nM | % Adduct Formation (DCN1 protein): +++ (MS Emax % adduct formation greater than 80.0 and less than or equal to 100.0)

CCN1C(=O)[C@@H](NC(=O)c2cccc(C(F)(F)F)c2)[C@@H](c2ccc(F)cc2)c2c(C(=O)N3CCC[C@H]3C#N)nn(C3CC3)c21 [Compound I-354]
IC50 [1]: ≤ 100 nM | IC50 [2, 3]: ≤ 200 nM | IC50 [2, 4]: ≤ 200 nM | % Adduct Formation (DCN1 protein): ++ (MS Emax % adduct formation greater than 30.0 and less than or equal to 80.0)

CCN1C(=O)[C@@H](NC(=O)c2cccc(C(F)(F)F)c2)[C@@H](c2ccc(F)cc2)c2c(C(=O)N(CC#N)C3CC3)nn(C3CC3)c21 [Compound I-355]
IC50 [1]: ≤ 100 nM | IC50 [2, 3]: ≤ 200 nM | IC50 [2, 4]: ≤ 200 nM | % Adduct Formation (DCN1 protein): +++ (MS Emax % adduct formation greater than 80.0 and less than or equal to 100.0)

CCCn1nc(C(=O)N(CC#N)C2CC2)c2c1N(CC)C(=O)[C@@H](NC(=O)c1cccc(C(F)(F)F)c1)[C@H]2c1ccc(F)cc1 [Compound I-356]
IC50 [1]: ≤ 100 nM | IC50 [2, 3]: ≤ 200 nM | IC50 [2, 5]: 200 to 1000 nM | % Adduct Formation (DCN1 protein): +++ (MS Emax % adduct formation greater than 80.0 and less than or equal to 100.0)

CCN1C(=O)[C@@H](NC(=O)c2cccc(C(F)(F)F)c2)[C@@H](c2ccc(F)cc2)c2c(C(=O)N3CCN(C4COC4)CC3C#N)nn(-c3ccccc3)c21 (some centres unmarked) [Compound I-357]
IC50 [1]: ≤ 100 nM | IC50 [2, 3]: ≤ 200 nM | IC50 [2, 4]: ≤ 200 nM | % Adduct Formation (DCN1 protein): ++ (MS Emax % adduct formation greater than 30.0 and less than or equal to 80.0)

CCN1C(=O)[C@@H](NC(=O)c2cccc(C(F)(F)F)c2)[C@@H](c2ccc(F)cc2)c2c(C(=O)N(CC#N)CC#N)nn(C3CCOCC3)c21 [Compound I-365]
IC50 [1]: ≤ 100 nM | IC50 [2, 3]: ≤ 200 nM | IC50 [2, 4]: ≤ 200 nM | % Adduct Formation (DCN1 protein): +++ (MS Emax % adduct formation greater than 80.0 and less than or equal to 100.0)

CCN1C(=O)[C@@H](NC(=O)c2cccc(C(F)(F)F)c2)[C@@H](c2ccc(F)cc2)c2c(C(=O)N(C)CC#N)nn(C3CCOCC3)c21 [Compound I-366]
IC50 [1]: ≤ 100 nM | IC50 [2, 3]: ≤ 200 nM | IC50 [2, 4]: ≤ 200 nM | % Adduct Formation (DCN1 protein): +++ (MS Emax % adduct formation greater than 80.0 and less than or equal to 100.0)

CCN1C(=O)[C@@H](NC(=O)c2cccc(C(F)(F)F)c2)[C@@H](c2ccc(F)cc2)c2c(C(=O)N(C)[C@H](C)C#N)nn(C3CCOCC3)c21 [Compound I-367]
IC50 [1]: ≤ 100 nM | IC50 [2, 3]: ≤ 200 nM | IC50 [2, 4]: ≤ 200 nM | % Adduct Formation (DCN1 protein): +++ (MS Emax % adduct formation greater than 80.0 and less than or equal to 100.0)

CCN1C(=O)[C@@H](NC(=O)c2cccc(C(F)(F)F)c2)[C@@H](c2ccc(F)cc2)c2c(C(=O)N(C)[C@@H](C)C#N)nn(C3CCOCC3)c21 [Compound I-368]
IC50 [1]: ≤ 100 nM | IC50 [2, 3]: ≤ 200 nM | IC50 [2, 4]: ≤ 200 nM | % Adduct Formation (DCN1 protein): +++ (MS Emax % adduct formation greater than 80.0 and less than or equal to 100.0)

CCN1C(=O)[C@@H](NC(=O)c2cccc(C(F)(F)F)c2)[C@@H](C2CC2)c2c(C(=O)N(CC#N)CC#N)nn(C3CCOCC3)c21 [Compound I-373]
IC50 [1]: ≤ 100 nM | IC50 [2, 3]: ≤ 200 nM | IC50 [2, 4]: ≤ 200 nM | % Adduct Formation (DCN1 protein): ++ (MS Emax % adduct formation greater than 30.0 and less than or equal to 80.0)

CCN1C(=O)[C@@H](NC(=O)c2cccc(C(F)(F)F)c2)[C@@H](C2CCC2)c2c(C(=O)N(C)C(C)C#N)nn(C3CCOCC3)c21 (some centres unmarked) [Compound I-375]
IC50 [1]: ≤ 100 nM | IC50 [2, 3]: ≤ 200 nM | IC50 [2, 4]: ≤ 200 nM | % Adduct Formation (DCN1 protein): +++ (MS Emax % adduct formation greater than 80.0 and less than or equal to 100.0)

CCN1C(=O)[C@@H](NC(=O)c2cccc(C(F)(F)F)c2)[C@@H](C2CCCC2)c2c(C(=O)N3[C@H](C#N)C[C@H]4C[C@H]43)nn(C3CCOCC3)c21 [Compound I-376]
IC50 [1]: ≤ 100 nM | IC50 [2, 3]: ≤ 200 nM | IC50 [2, 4]: ≤ 200 nM | % Adduct Formation (DCN1 protein): +++ (MS Emax % adduct formation greater than 80.0 and less than or equal to 100.0)

CCN1C(=O)[C@@H](NC(=O)c2cccc(C(F)(F)F)c2)[C@@H](C2CC2)c2c(C(=O)N3CCOC[C@H]3C#N)nn(-c3ccccc3)c21 [Compound I-382]
IC50 [1]: ≤ 100 nM | IC50 [2, 3]: ≤ 200 nM | IC50 [2, 5]: 200 to 1000 nM | % Adduct Formation (DCN1 protein): +++ (MS Emax % adduct formation greater than 80.0 and less than or equal to 100.0)

Source: US20250163057A1, “DCN-1 MODULATING COMPOUNDS AND METHODS OF USE THEREOF” (Cellarity, Inc., priority 2023, published 2025)
